Assay [1] concerns Jurkat T cell line. Briefly: Jurkat cell binding to frozen human RA synovial sections. It counts as cell-based. The following applies: 10-mer at 500 μg/ml; inhibitor peptide at its IC50 value. As for the experimental part:
Binding studies were carried out using the Jurkat T cell line and frozen RA synovial sections. […] Stimulated MOLT-4 cells behaved similarly.

The target of assay [2] is VLA-4 (Homo sapiens, UniProt P05556+P13612). Put plainly: cell-based. It counts as cell-based. On the set-up: host or cells: Jurkat (human T lymphoblastic line). In short, it runs like this:
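51Cr-labelled Jurkat cells (human T lymphoblastic) were preincubated 30 min at about 22 °C with peptide, then allowed to bind 30 min at 37 °C to wells coated with CS-1 peptide or CS-1-OVA. After washing, bound cells were lysed with SDS and counted. IC50 is the peptide concentration halving binding, normalized to plate controls.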

Peptide text beside a SMILES is read from it.

Chain of VLA-4 (P13612 34-1032): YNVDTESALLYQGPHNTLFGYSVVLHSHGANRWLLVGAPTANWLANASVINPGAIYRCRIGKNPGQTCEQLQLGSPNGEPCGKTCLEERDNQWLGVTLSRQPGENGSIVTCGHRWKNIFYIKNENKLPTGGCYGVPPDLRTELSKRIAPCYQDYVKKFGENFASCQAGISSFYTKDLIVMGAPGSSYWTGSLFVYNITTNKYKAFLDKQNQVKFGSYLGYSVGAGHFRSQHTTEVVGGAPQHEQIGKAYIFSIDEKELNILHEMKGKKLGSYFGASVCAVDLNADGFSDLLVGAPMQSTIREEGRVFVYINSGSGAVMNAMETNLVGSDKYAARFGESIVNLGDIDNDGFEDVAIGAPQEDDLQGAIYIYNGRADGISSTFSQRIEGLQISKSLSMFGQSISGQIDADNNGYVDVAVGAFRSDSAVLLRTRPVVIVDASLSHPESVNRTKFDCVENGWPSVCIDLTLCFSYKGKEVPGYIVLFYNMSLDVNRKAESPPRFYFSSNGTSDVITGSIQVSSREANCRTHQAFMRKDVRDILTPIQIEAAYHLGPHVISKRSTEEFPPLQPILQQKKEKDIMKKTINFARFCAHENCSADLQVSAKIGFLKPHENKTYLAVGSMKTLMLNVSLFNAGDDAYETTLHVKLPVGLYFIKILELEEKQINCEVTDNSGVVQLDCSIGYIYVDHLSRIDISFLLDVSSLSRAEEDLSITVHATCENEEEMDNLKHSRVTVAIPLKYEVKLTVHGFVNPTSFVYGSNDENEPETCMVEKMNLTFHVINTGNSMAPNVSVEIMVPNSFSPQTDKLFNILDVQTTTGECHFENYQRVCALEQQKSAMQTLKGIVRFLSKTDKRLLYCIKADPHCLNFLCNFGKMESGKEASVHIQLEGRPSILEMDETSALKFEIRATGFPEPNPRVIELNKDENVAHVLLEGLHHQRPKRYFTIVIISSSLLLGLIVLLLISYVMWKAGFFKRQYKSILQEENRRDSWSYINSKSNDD
Chain of VLA-4 (P05556 21-798): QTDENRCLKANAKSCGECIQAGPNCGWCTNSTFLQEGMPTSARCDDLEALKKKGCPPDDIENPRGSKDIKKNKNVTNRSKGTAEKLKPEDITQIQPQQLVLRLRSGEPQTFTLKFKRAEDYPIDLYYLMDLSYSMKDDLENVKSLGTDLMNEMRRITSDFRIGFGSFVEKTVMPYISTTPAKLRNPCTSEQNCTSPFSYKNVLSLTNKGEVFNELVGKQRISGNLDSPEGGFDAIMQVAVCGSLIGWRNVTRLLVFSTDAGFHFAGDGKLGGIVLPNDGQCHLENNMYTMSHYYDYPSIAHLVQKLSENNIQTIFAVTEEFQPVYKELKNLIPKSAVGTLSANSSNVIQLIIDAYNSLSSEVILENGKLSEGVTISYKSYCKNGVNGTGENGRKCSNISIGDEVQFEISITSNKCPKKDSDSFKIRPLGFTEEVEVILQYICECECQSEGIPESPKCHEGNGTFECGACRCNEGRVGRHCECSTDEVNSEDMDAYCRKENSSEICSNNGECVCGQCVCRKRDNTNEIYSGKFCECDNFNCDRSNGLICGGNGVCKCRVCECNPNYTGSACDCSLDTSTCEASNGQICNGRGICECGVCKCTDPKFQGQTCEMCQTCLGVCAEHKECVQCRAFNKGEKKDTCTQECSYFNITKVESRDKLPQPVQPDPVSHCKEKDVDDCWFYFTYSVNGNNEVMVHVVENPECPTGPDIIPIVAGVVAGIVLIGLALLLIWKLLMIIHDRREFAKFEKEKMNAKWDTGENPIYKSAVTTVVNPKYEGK

As for `CC[C@H](C)[C@H](NC(=O)[C@H](CCC(=O)O)NC(=O)[C@@H]1CCCN1C(=O)CN)C(=O)N[C@@H](CC(C)C)C(=O)N[C@@H](CC(=O)O)C(=O)N[C@H](C(=O)N1CCC[C@H]1C(=O)N[C@@H](CO)C(=O)N[C@H](C(=O)O)[C@@H](C)O)C(C)C` [G P E I L D V P S T free amine free acid, GPEILDVPST, reference compound] (H-GPEILDVPST-OH), the “inhibition of Jurkat cell adhesion to RA synovial sections” value in assay [1] is on record as “could be inhibited”. Moreover, the “RELATIVE POTENCY (relative peptide inhibition of VLA-4 binding CS-1)” value in assay [2] amounted to 1.
